The text below walks through data of patent US7368578B2, “Five-membered heterocyclic compounds” (Takeda Pharmaceutical Company Limited, priority 2002, dated 2008).

In data set [1] the target is T1, human PPARγ1 (Homo sapiens, UniProt P37231).
T1 construct: made in house; host or cells: COS-1 cells transiently transfected with pMCMVneo-hPPARγ; crude supernatant of the lysate, not purified
T1 sequence (P37231 1-477 isoform P37231-2): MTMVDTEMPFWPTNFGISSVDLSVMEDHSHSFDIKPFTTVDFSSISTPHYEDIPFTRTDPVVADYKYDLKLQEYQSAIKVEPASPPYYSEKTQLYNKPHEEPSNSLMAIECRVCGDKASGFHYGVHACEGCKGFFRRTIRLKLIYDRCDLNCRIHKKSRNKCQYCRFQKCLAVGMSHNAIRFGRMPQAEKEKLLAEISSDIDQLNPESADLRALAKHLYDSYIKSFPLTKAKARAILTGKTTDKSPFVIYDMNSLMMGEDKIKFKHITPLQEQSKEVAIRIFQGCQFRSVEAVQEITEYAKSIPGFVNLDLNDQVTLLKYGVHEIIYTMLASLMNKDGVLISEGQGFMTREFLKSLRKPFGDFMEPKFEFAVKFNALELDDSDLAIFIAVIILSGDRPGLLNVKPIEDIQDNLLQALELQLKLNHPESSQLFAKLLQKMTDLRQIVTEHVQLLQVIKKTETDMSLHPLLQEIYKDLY
Briefly: Measurement of human PPARγ1 binding activity ([3H]-compound A displacement). As to conditions: cell extract with 1.5 μg/ml full length hPPARγ1, 20 nM [3H]-compound A, 4° C., 16 hrs. The protocol: A cell extract containing 1.5 μg/ml of full length hPPARγ1 prepared in Reference Example 7a, 20 nM [^3H]-compound A (16 Ci/mmol)(Amersham Pharmacia Biotech) and a test compound were reacted in TEGM buffer at 4° C. for 16 hrs. To the reaction mixture was added activated carbon (Sigma) coated with 140 μl of dextran (Amersham Pharmacia Biotech) and gelatin (Sigma), and the mixture was left standing at 4° C. for 10 min and centrifuged at 910×g for 10 min. After centrifugation, the radioactivity of 30 μl of supernatant was measured with Topcount (Packard). In addition, a test similar to the above was conducted for the non-use of the aforementioned test compound and for the use of 100 μM of compound A instead of the aforementioned test compound, and the radioactivity was determined.
The human PPARγ1 binding activity of the test compound was evaluated using percentages wherein the measured value of the radioactivity when 20 nM [^3H]-compound A alone was added was 100%, and the measured value of the radioactivity when 20 nM [^3H]-compound A and 100 μM of compound A were simultaneously added was 0%. Moreover, the IC50 value of the test compound was calculated based on the analysis of the compound concentration and the percentage using PRISM3.0 (Graph Pad, Inc.).
COS-1 cells were seeded in a 150 cm^2 tissue culture flask (Corning Inc.) at 5×10^6 cells, and cultured under 37° C. 5% CO2 conditions for 24 hrs. Transfection was performed using lipofectamine (GIBCO BRL). To be specific, 125 μl of lipofectamine, 100 μl of PLUS Reagent and 15 μg of hPPARγ expression plasmid (plasmid pMCMVneo-hPPARγ obtained in Reference Example 6a) were mixed with opti-MEM (GIBCO BRL) to give a transfection mixture. The transfection mixture (25 ml) was added to COS-1 cells and the cells were cultured under 37° C. 5% CO2 conditions for 3 hrs. Then 25 ml of DMEM medium (Nikken Biomedical Laboratory) containing 10% FCS treated with activated carbon (Sigma) was added to the cells and the cells were cultured under 37° C. 5% CO2 conditions. After 24 hrs., the medium was substituted with 50 ml of DMEM medium (Nikken Biomedical Laboratory) containing 5% FCS treated with activated carbon, and the cells were cultured under 37° C., 5% CO2 conditions. After 48 hrs, the transfected cells were recovered and washed with TEG buffer (10 mM Tris-HCl (pH 7.2), 50 mM EDTA, 10% glycerol). The cells were suspended in 1 ml TEGM buffer (10 mM Tris-HCl (pH 7.2), 1 mM EDTA, 10% glycerol, 7 μl/100 ml β-mercaptoethanol, 10 mM Na molybdate, 1 mM dithiothreitol, 2 tablets/100 ml Protease inhibitor Cocktail tablets (Boehringer Mannheim)) and, for cell lysis, frozen with liquid nitrogen and thawed on ice. To remove the debris of the cells, the extract was centrifuged at 228,000×g, 4° C. for 20 min. and the supernatant was preserved at −80° C. until use.

One may read the IC50 as the concentration that gives 50% inhibition. Higher therefore signals weaker potency. For orientation: melting point means the temperature, or range, at which the solid turns liquid. Molecule `Cc1oc(-c2ccco2)nc1COc1ccc(COc2nn(Cc3ccccc3)cc2C=O)cn1` [Example 42, 1-benzyl-3-[(6-{[2-(2-furyl)-5-methyl-1,3-oxazol-4-yl]methoxy}-3-pyridinyl)methoxy]-1H-pyrazole-4-carbaldehyde] yielded a melting point of 104 to 105 °C. This molecule displayed a concentration for half-maximal inhibition (IC50) in data set [1] of 1100 nM.
For the molecule `CCOC(=O)c1cn(-c2ccccc2)nc1OCc1ccc(OCc2nc(-c3ccco3)oc2C)c(OC)c1` [Example 72, ethyl 3-[(4-{[2-(2-furyl)-5-methyl-1,3-oxazol-4-yl]methoxy}-3-methoxybenzyl)oxy]-1-phenyl-1H-pyrazole-4-carboxylate], the melting point was 150 to 151 °C. In data set [1], this molecule showed an IC50 of 770 nM.
In data set [1], `COc1cc(COc2nn(-c3ccccc3)cc2CO)ccc1OCc1nc(-c2ccco2)oc1C` [Example 75, {3-[(4-{[2-(2-furyl)-5-methyl-1,3-oxazol-4-yl]methoxy}-3-methoxybenzyl)oxy]-1-phenyl-1H-pyrazol-4-yl}methanol] gave an IC50 of 660 nM.
The molecule `COc1cc(COc2nn(-c3ccccc3)cc2C=O)ccc1OCc1nc(-c2ccco2)oc1C` [Example 76, 3-[(4-{[2-(2-furyl)-5-methyl-1,3-oxazol-4-yl]methoxy}-3-methoxybenzyl)oxy]-1-phenyl-1H-pyrazole-4-carbaldehyde] returned a melting point of 137 to 138 °C. Also, the IC50 in data set [1] was found to be 190 nM.
For `COc1cc(COc2nn(-c3ccccc3)cc2C#N)ccc1OCc1nc(-c2ccco2)oc1C` [Example 77, 3-[(4-{[2-(2-furyl)-5-methyl-1,3-oxazol-4-yl]methoxy)-3-methoxybenzyl)oxy]-1-phenyl-1H-pyrazole-4-carbonitrile] the same measures were 167 to 168 °C and 79 nM.
In turn, `CCOP(=O)(CCc1cn(-c2ccccc2)nc1OCc1ccc(OCc2nc(-c3ccco3)oc2C)c(OC)c1)OCC` [Example 100, diethyl 2-{3-[(4-{[2-(2-furyl)-5-methyl-1,3-oxazol-4-yl]methoxy}-3-methoxybenzyl)oxy]-1-phenyl-1H-pyrazol-4-yl}ethylphosphonate] yielded a half-maximal inhibitory concentration (IC50) in data set [1] of 210 nM.
Same read-out and setting: the result for `CCOP(=O)(/C=C/c1cn(-c2ccccc2)nc1OCc1ccc(OCc2nc(-c3ccco3)oc2C)c(OC)c1)OCC` [Example 116 (E form), diethyl (E)-2-{3-[(4-{[2-(2-furyl)-5-methyl-1,3-oxazol-4-yl]methoxy}-3-methoxybenzyl)oxy]-1-phenyl-1H-pyrazol-4-yl}ethenylphosphonate] reads 39 nM.
`COc1cc(COc2nn(-c3ccccc3)cc2/C=C/P(=O)(OC(C)C)OC(C)C)ccc1OCc1nc(-c2ccco2)oc1C` [Example 145, diisopropyl (E)-2-{3-[(4-{[2-(2-furyl)-5-methyl-1,3-oxazol-4-yl]methoxy}-3-methoxybenzyl)oxy]-1-phenyl-1H-pyrazol-4-yl}ethenylphosphonate] displayed a melting point of 152 to 153 °C. Further, in data set [1], the IC50 is 80 nM.
For `CCOP(=O)(/C=C/c1cn(-c2ccccc2)nc1OCc1ccc(OCc2nc(-c3ccccc3)oc2C)c(OC)c1)OCC` [Example 146, diethyl (E)-2-[3-({3-methoxy-4-[(5-methyl-2-phenyl-1,3-oxazol-4-yl)methoxy]benzyl}oxy)-1-phenyl-1H-pyrazol-4-yl]ethenylphosphonate] the same measures were 92 to 93 °C and 68 nM.
For `COc1cc(COc2nn(-c3ccccc3)cc2/C=C/c2csc(C)n2)ccc1OCc1nc(-c2ccco2)oc1C` [Example 150 (E form), 2-(2-furyl)-4-({2-methoxy-4-[({4-[(E)-2-(2-methyl-1,3-thiazol-4-yl)ethenyl]-1-phenyl-1H-pyrazol-3-yl}oxy)methyl]phenoxy}methyl)-5-methyl-1,3-oxazole] the same measures were 111 to 112 °C and 50 nM.
For the molecule `CCOP(=O)(/C=C/c1cn(-c2ccccc2)nc1OCc1ccc(OCc2nc(-c3ccc(CC(=O)O)cc3)oc2C)c(OC)c1)OCC` [Example 241, {4-[4-({4-[({4-[(E)-2-(diethoxyphosphoryl)ethenyl]-1-phenyl-1H-pyrazol-3-yl}oxy)methyl]-2-methoxyphenoxy}methyl)-5-methyl-1,3-oxazol-2-yl]phenyl}acetic acid], the concentration for half-maximal inhibition (IC50) in data set [1] was 69 nM.
Still for that read-out and setting: the result for `CCOP(=O)(/C=C/c1cn(-c2ccccc2)nc1OCc1ccc(OCc2nc(-c3cccc(CC(=O)O)c3)oc2C)c(OC)c1)OCC` [Example 249, {3-[4-({4-[({4-[(E)-2-(diethoxyphosphoryl)ethenyl]-1-phenyl-1H-pyrazol-3-yl}oxy)methyl]-2-methoxyphenoxy}methyl)-5-methyl-1,3-oxazol-2-yl]phenyl}acetic acid] reads 33 nM; that for `CCOP(=O)(/C=C/c1cn(-c2ccccc2)nc1OCc1ccc(OCc2nc(-c3cccc(-c4nnn[nH]4)c3)oc2C)c(OC)c1)OCC` [Example 336, {(E)-2-(3-{[3-methoxy-4-({5-methyl-2-[3-(1H-tetrazol-5-yl)phenyl]-1,3-oxazol-4-yl}methoxy)benzyl]oxy}-1-phenyl-1H-pyrazol-4-yl)ethenyl}phosphonate diethyl], 7.7 nM.
In the case of `CCc1nc(/C=C/c2cn(-c3ccccc3)nc2OCc2ccc(OCc3nc(-c4ccc(CC(=O)O)cc4)oc3C)c(OC)c2)cs1` [Example 337, {4-[4-({4-[({4-[(E)-2-(2-ethyl-1,3-thiazol-4-yl)ethenyl]-1-phenyl-1H-pyrazol-3-yl}oxy)methyl]-2-methoxyphenoxy}methyl)-5-methyl-1,3-oxazol-2-yl]phenyl}acetic acid], the IC50 in data set [1] worked out at 66 nM.
Regarding `COc1cc(COc2nn(-c3ccccc3)cc2/C=C/c2csc(C)n2)ccc1OCc1nc(-c2ccc(CC(=O)O)cc2)oc1C` [Example 357, {4-[4-({2-methoxy-4-[({4-[(E)-2-(2-methyl-1,3-thiazol-4-yl)ethenyl]-1-phenyl-1H-pyrazol-3-yl}oxy)methyl]phenoxy}methyl)-5-methyl-1,3-oxazol-2-yl]phenyl}acetic acid], in data set [1], the IC50 was found to be 150 nM.
Still for that read-out and setting: under `COc1cc(COc2nn(-c3ccccc3)cc2/C=C/c2csc(C(C)C)n2)ccc1OCc1nc(-c2ccc(CC(=O)O)cc2)oc1C` [Example 361, {4-[4-({4-[({4-[(E)-2-(2-isopropyl-1,3-thiazol-4-yl)ethenyl]-1-phenyl-1H-pyrazol-3-yl}oxy)methyl]-2-methoxyphenoxy}methyl)-5-methyl-1,3-oxazol-2-yl]phenyl}acetic acid] stands 38 nM.
Still for that read-out and setting: under `CCc1nc(/C=C/c2cn(-c3ccccc3)nc2OCc2ccc(OCc3nc(-c4ccc(CC(=O)O)cc4)oc3C)c(OC)c2)co1` [Example 369, {4-[4-({4-[({4-[(E)-2-(2-ethyl-1,3-oxazol-4-yl)ethenyl]-1-phenyl-1H-pyrazol-3-yl}oxy)methyl]-2-methoxyphenoxy}methyl)-5-methyl-1,3-oxazol-2-yl]phenyl}acetic acid] stands 83 nM.
The same measure, in the same setting: the result for `COc1cc(COc2nn(-c3ccccc3)cc2/C=C/c2coc(C(C)C)n2)ccc1OCc1nc(-c2ccc(CC(=O)O)cc2)oc1C` [Example 370, {4-[4-({4-[({4-[(E)-2-(2-isopropyl-1,3-oxazol-4-yl)ethenyl]-1-phenyl-1H-pyrazol-3-yl}oxy)methyl]-2-methoxyphenoxy}methyl)-5-methyl-1,3-oxazol-2-yl]phenyl}acetic acid] reads 32 nM.
